Measured values taken from patent US5998468A, “Furanone endothelin antagonists” (Warner-Lambert Company, priority 1997, dated 1999).
Entries after “also recorded” stand apart in the source; their conditions may differ. Where two headings read alike, the source gives them in different places. Where a SMILES comes first, the peptide text is derived from it. [ ]: non-standard residue; d: D form.

Legend:
[1] = test system: ETA; settings: mouse endotoxic shock; cited from earlier work
[2] = test system: early cerebral vasospasm following SAH; settings: rabbit; cited from earlier work
[3] = test system: early cerebral vasospasm following SAH; settings: cited from earlier work; for early cerebral vasospasm following SAH: rat
[4] = target: T1, endothelin receptor ETA (Oryctolagus cuniculus, UniProt A5A8K3); assay type: binding; settings: [125I]-ET-1 25 pM, rabbit renal artery vascular smooth muscle cells; read-out: ERBA-A IC50
T1 sequence (A5A8K3 21-427): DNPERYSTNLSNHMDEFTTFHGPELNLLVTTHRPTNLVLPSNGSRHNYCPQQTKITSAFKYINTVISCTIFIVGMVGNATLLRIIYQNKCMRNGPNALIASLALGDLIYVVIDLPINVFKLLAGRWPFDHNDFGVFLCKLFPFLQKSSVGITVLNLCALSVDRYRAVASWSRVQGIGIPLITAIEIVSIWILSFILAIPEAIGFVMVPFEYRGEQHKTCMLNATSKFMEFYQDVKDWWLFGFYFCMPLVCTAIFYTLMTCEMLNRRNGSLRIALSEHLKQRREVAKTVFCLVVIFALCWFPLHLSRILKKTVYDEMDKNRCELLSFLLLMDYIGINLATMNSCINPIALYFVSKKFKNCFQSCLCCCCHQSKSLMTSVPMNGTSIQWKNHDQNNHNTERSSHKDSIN
Source text: (§1) The compounds of Formula I are valuable antagonists of endothelin.

[5] = target: endothelin receptor ETB; assay: Endothelin receptor binding assay-B (ERBA-B), [125I]-ET-1 binding in rat cerebellar membranes; settings: [125I]-ET-1 25 pM, rat cerebellar membranes (also modified with human ETB in CHO-K1)
Source text: as §1
Count filters for radioactivity in gamma counter.
The above process has also been modified by using human recombinant CHO-K1 cells.
The tissue used for human ETB was recombinant human ETB receptor expressed in CHO-K1 cells (chinese hamster ovary cells). The gene for human ETB receptor was cloned and inserted into the pRc-CMW expression vector, then transfected into CHO-K1 cells by electroporation. For binding assays, membranes (0.7 mg protein) of CHO-K1 cells expressing recombinant human ETB receptor were used.

[6] = test system: basilar artery; settings: after 7 days, canine two-hemorrhage model of SAH; cited from earlier work

Compound: CC(C)C[C@@H]1NC(=O)[C@@H](C(C)C)NC(=O)[C@@H]2CCCN2C(=O)[C@@H](CC(=O)O)NC(=O)[C@@H](Cc2c[nH]c3ccccc23)NC1=O [BQ-123] (cyclo(L[dW][dD]P[dV]))
- survival rate [1]: significantly increased
- early cerebral vasospasm following SAH [2]: prevents early cerebral vasospasm
- early cerebral vasospasm following SAH [3]: prevent early cerebral vasospasm following subarachnoid hemorrhage; also recorded: prevents early cerebral vasospasm

Compound: COc1ccc(CC2=C(c3ccc4c(c3)OCO4)C(=O)OC2c2cc(OC)c(OC)c(OC)c2)cc1 (centres unmarked) [Example 3, 3-Benzo[1,3]dioxol-5-yl-4-(4-methoxybenzyl)-5-(3,4,5-trimethoxyphenyl)-5H-furan-2-one]
- IC50 [4]: > 100 nM

Compound: COc1ccc(C2OC(=O)C(c3ccc4c(c3)OCO4)=C2Cc2cc(OC)c(OC)c(OC)c2)cc1 (centres unmarked) [Example 2, 3-Benzo[1,3]dioxol-5-yl-5-(4-methoxyphenyl)-4-(3,4,5-trimethoxybenzyl)-5H-furan-2-one]
- IC50 [4]: 30 nM

Compound: COc1ccc(C2OC(=O)C(c3ccc4c(c3)OCO4)=C2Cc2ccccc2)cc1 (centres unmarked) [Example 1, 3-Benzo[1,3]dioxol-5-yl-4-benzyl-5-(4-methoxyphenyl)-5H-furan-2-one]
- IC50 [5]: > 2500 nM
- IC50 [4]: 700 nM

Compound: COc1cccc(Oc2c(NS(=O)(=O)c3ccc(C(C)(C)C)cc3)ncnc2OCCO)c1 [Ro 46-2005]
- systemic arterial blood pressure ([3]; rat SAH): no significant effect
- early cerebral vasospasm following SAH [3]: prevent early cerebral vasospasm

Compound: COc1ccc(C2OC(=O)C(c3ccc4c(c3)OCO4)=C2Cc2ccc(OC)c(C)c2)cc1 (centres unmarked) [Example 4, 3-Benzo[1,3]dioxol-5-yl-4-(4-methoxy-3-methylbenzyl)-5-(4-methoxyphenyl)-5H-furan-2-one]
- IC50 [4]: 200 nM

Compound: FR 139317
- vasoconstriction of the basilar artery [6]: significantly inhibited
